{"source": "patent US7087635B2", "about": "“3-substituted oxindole β3 agonists” (Eli Lilly and Company, priority 2001, dated 2006)"}
{"target": "T1, human β3 adrenergic receptor (Homo sapiens, UniProt P13945)", "T1 construct": "expressed in transfected cells; host or cells: DXB-11 Chinese hamster ovary (CHO) cell line, stably transfected, phd expression vector", "T1 sequence (P13945 whole entry)": "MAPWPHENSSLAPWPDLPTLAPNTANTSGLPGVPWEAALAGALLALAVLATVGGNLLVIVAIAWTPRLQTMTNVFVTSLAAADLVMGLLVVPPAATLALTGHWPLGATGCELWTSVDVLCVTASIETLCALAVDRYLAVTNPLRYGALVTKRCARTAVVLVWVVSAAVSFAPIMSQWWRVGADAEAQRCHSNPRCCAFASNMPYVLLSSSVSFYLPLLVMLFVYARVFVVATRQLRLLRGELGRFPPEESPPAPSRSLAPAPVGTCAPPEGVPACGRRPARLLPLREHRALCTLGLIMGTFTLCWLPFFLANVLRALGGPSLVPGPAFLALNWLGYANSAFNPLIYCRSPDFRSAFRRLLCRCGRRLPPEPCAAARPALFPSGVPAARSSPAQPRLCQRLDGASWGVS", "experiment": "whole cell receptor coupled c-AMP assay (Emax relative to isoproterenol)", "type": "cell-based", "conditions": "% intrinsic activity relative to isoproterenol maximal response; transfected CHO cells", "from_the_text": "The genes encoding the human β1-adrenergic receptor (Frielle et al., Proc. Natl. Acad. Sci., 84:7920–7924, 1987), the human β2-adrenergic receptor (Kobika el al., Proc. Natl. Acad. Sci., 84:46–50, 1987, Emorine et al., Proc. Natl. Acad. Sci., 84:6995–6999, 1987) and the human β3 adrenergic receptor (Granneman et al., Molecular Pharmacology, 44(2):264–70, 1993) are individually subcloned into a phd expression vector (Grinnell et al., Bio/Technology, 5:1189–1192, 1987) and transfected into the DXB-11 Chinese hamster ovary (CHO) cell line by calcium phosphate precipitation methodology. The stably transfected cells are grown to 95% confluency in 95% Dulbecco's modified Eagles Medium (DMEM), 5% fetal bovine serum and 0.01% proline. Media is removed and the cells are washed with phosphate buffered (pH 7.4) saline (without magnesium and calcium). Cells are then lifted using an enzyme free cell dissociation solution (Specialty Media, Lavallette, N.J.) and pelleted by centrifugation.\nCells from each of the above cell lines are resuspended and added (20,000/well) to a 96-well plate. Cells are incubated at 37° C. with representative compounds of the invention for 20 minutes in buffer (Hank's balanced salt solution, 10 mM HEPES, 0.1% BSA, 1 mM L-ascorbic acid, 0.2% dimethyl sulfoxide, 1 mM 3-isobutyl-1-methylxanthine, pH 7.4). After halting the incubation with quench buffer (50 mM Na Acetate, 0.25% Triton X-100, pH 5.8), the c-AMP level is quantified by scintillation proximity assay (SPA) using a modification of the commercially available c-AMP kit (Amersham, Arlington Heights, Ill.) with rabbit anti-cAMP antibody (ICN Biomedicals, Aurora, Ohio) for the kit.\nSigmoidal dose response curves, from the whole cell receptor coupled c-AMP assay are fit to a four parameter logistic equation using non linear regression: y=(a–d)/(1+(Dose/c)^b)+d where a and d are responses at zero and maximal dose, b is the slope factor and c is the EC50 as previously described (DeLean et al., Am. J. Physiol., 235, E97–E102, 1978). EC50 is assessed as the concentration producing 50% of the maximum response to each agonist.\nIsoproterenol is accepted in the art as a non-selective β3 agonist and is widely used as a comparator in evaluating the activity of compounds. See Trends in Pharm. Sci., 15:3, 1994. The % intrinsic activity (Emax) of representative compounds of the invention is assessed relative to isoproterenol by the compound's maximal response divided by the isoproterenol maximal response times 100.", "units": {"Emax": "%"}}
{"smiles": "CC(C)(Cc1c[nH]c2cccc(C(N)=O)c12)NC[C@H](O)COc1cccc2c1C1(CCCC1)C(=O)N2", "note": "[Example 85]", "Emax": 48.3}
{"smiles": "CC(C)(Cc1c[nH]c2c(CCc3nnn[nH]3)cccc12)NC[C@H](O)COc1cccc2c1C1(CCCC1)C(=O)N2", "note": "[Example 81]", "Emax": 77.4}
{"smiles": "CC(C)(Cc1c[nH]c2c(Oc3ccc(C(N)=O)cn3)cccc12)NC[C@H](O)COc1cccc2c1C1(CCCC1)C(=O)N2", "note": "[Example 75]", "Emax": 80.1}
{"smiles": "CC(C)(Cc1c[nH]c2c(-c3ccc(C(=O)O)s3)cccc12)NC[C@H](O)COc1cccc2c1C1(CCCC1)C(=O)N2", "note": "[Example 79]", "Emax": 75.1}
{"smiles": "CC(C)(Cc1c[nH]c2c(CCC(=O)O)cccc12)NC[C@H](O)COc1cccc2c1C1(CCCC1)C(=O)N2", "note": "[Example 80]", "Emax": 77.2}
{"smiles": "CC(C)(Cc1c[nH]c2c(Oc3ccc(-c4nn[nH]n4)cn3)cccc12)NC[C@H](O)COc1cccc2c1C1(CCCC1)C(=O)N2", "note": "[Example 74]", "Emax": 78.1}
{"smiles": "CC(C)(Cc1c[nH]c2ccc(C(=O)O)cc12)NC[C@H](O)COc1cccc2c1C1(CCCC1)C(=O)N2", "note": "[Example 70]", "Emax": 53.5}
{"smiles": "CC(C)(Cc1c[nH]c2c(-c3cccc(C(=O)O)c3)cccc12)NC[C@H](O)COc1cccc2c1C1(CCCC1)C(=O)N2", "note": "[Example 78]", "Emax": 93.5}
{"smiles": "CC(C)(Cc1c[nH]c2c(CCc3ccc(S(N)(=O)=O)cc3)cccc12)NC[C@H](O)COc1cccc2c1C1(CCCC1)C(=O)N2", "note": "[Example 84]", "Emax": 78.5}
{"smiles": "CC(C)(Cc1c[nH]c2cc(C(=O)O)ccc12)NC[C@H](O)COc1cccc2c1C1(CCCC1)C(=O)N2", "note": "[Example 72]", "Emax": 56.2}
{"smiles": "CC(C)(Cc1c[nH]c2c(Oc3ncccc3-c3nn[nH]n3)cccc12)NC[C@H](O)COc1cccc2c1C1(CCCC1)C(=O)N2", "note": "[Example 76]", "Emax": 80.1}
{"smiles": "CC(C)(Cc1c[nH]c2cccc(C(=O)O)c12)NC[C@H](O)COc1cccc2c1C1(CCCC1)C(=O)N2", "note": "[Example 69]", "Emax": 37.9}
{"smiles": "CC(C)(Cc1c[nH]c2c(C(=O)O)cccc12)NC[C@H](O)COc1cccc2c1C1(CCCC1)C(=O)N2", "note": "[Example 71]", "Emax": 59.5}
{"smiles": "CC(C)(Cc1c[nH]c2c(Oc3ccc(C(=O)O)cn3)cccc12)NC[C@H](O)COc1cccc2c1C1(CCCC1)C(=O)N2", "note": "[Example 73]", "Emax": 82.4}
{"smiles": "CC(C)(Cc1c[nH]c2c(OCC3=NCCS3)cccc12)NC[C@H](O)COc1cccc2c1C1(CCCC1)C(=O)N2", "note": "[Example 66]", "Emax": 84.9}
{"smiles": "C[C@H](Cn1ccc2c(OCC(=O)O)cccc21)NC[C@H](O)COc1cccc2c1C1(CCCC1)C(=O)N2", "note": "[Example 68]", "Emax": 73.3}
{"smiles": "CC(C)(Cc1c[nH]c2c(CCc3cnccn3)cccc12)NC[C@H](O)COc1cccc2c1C1(CCCC1)C(=O)N2", "note": "[Example 83]", "Emax": 79.3}
{"smiles": "CC(C)(Cc1c[nH]c2cc(CCc3nnn[nH]3)ccc12)NC[C@H](O)COc1cccc2c1C1(CCCC1)C(=O)N2", "note": "[Example 82]", "Emax": 72.7}
